{
  "source": "patent US5358707A",
  "about": "“Oxidized variants of GM-CSF” (Schering Corporation, priority 1992, dated 1994)",
  "key": {"[1]": {"system": "KG-1 cells", "assay": "KG-1 Cell Bioassay (MTT, cell growth stimulation)", "assay_type": "cell-based, human", "description": "Briefly, cultures of about 1×10^4 cells were incubated with dilutions of the various proteins in Iscove's modified Dulbecco's medium at 37° C. for 6 days. The tetrazolium salt MTT (3-[4,5-Dimethylthiazol-2-yl]-2,5-diphenyltetrazolium bromide; Thiazolyl blue) was then added at a final concentration of 0.5 mg/ml, and incubation was continued for another 4 hours. MTT is cleaved by mitochondrial dehydrogenase enzymes to produce a colored reaction product, formazan, the quantity of which is directly related to LOG2 cell concentration."}, "[2]": {"assay": "Analytical isoelectric focusing", "assay_type": "physicochemical"}},
  "note": "Where “and” joins values, the source holds several entries; their conditions need not be identical. Equal values may be shown once.",
  "data": [
    {"substance": "GM-CSF: Unoxidized recombinant mature human GM-CSF produced in E. coli; designated V0 when isolated from the secretory expression extract", "values": [
      {"measurement": "Biological Activity (Units/mg × 10^-9)", "setting": "[1]; KG-1 cells, 6 days, MTT, titer from dilution producing 50% maximal cell growth stimulation vs standard GM-CSF, MET-O and V variants analysed at different times", "value": "2.9 Units/mg × 10^-9 and 5.3 Units/mg × 10^-9"},
      {"measurement": "Biological Activity (% GM-CSF Activity)", "setting": "[1]; percentage of the unoxidized GM-CSF specific bioactivity of the same run", "value": 100, "unit": "%"},
      {"measurement": "pI", "setting": "[2]", "value": "about 5.3"}
    ]}
  ]
}
